# Active and inactive are the calls of the source. No cut-off for these calls is given here.
# Experiments:
# [1] = Lipophilicity, log D of compound in PBS buffer at pH 7 at 200 uM incubated for 24 hrs in shaker by UPLC/DAD analysis; assay type: physicochemical
# [2] = Solubility of compound in PBS buffer at pH 2 at 200 uM incubated for 24 hrs in shaker by UPLC-DAD analysis; assay type: physicochemical
# [3] = Solubility of compound in PBS buffer at pH 7 at 200 uM incubated for 24 hrs in shaker by UPLC-DAD analysis; assay type: physicochemical
# [4] = molecular target: Voltage-gated inwardly rectifying potassium channel KCNH2 (Homo sapiens, UniProt Q12809); assay: Displacement of [35S]-MK499 binding to human ERG expressed in HEK293 cells incubated for 2 hrs by liquid scintillation counting method; assay type: cell-based
# Sequence of Voltage-gated inwardly rectifying potassium channel KCNH2 (Q12809 whole entry): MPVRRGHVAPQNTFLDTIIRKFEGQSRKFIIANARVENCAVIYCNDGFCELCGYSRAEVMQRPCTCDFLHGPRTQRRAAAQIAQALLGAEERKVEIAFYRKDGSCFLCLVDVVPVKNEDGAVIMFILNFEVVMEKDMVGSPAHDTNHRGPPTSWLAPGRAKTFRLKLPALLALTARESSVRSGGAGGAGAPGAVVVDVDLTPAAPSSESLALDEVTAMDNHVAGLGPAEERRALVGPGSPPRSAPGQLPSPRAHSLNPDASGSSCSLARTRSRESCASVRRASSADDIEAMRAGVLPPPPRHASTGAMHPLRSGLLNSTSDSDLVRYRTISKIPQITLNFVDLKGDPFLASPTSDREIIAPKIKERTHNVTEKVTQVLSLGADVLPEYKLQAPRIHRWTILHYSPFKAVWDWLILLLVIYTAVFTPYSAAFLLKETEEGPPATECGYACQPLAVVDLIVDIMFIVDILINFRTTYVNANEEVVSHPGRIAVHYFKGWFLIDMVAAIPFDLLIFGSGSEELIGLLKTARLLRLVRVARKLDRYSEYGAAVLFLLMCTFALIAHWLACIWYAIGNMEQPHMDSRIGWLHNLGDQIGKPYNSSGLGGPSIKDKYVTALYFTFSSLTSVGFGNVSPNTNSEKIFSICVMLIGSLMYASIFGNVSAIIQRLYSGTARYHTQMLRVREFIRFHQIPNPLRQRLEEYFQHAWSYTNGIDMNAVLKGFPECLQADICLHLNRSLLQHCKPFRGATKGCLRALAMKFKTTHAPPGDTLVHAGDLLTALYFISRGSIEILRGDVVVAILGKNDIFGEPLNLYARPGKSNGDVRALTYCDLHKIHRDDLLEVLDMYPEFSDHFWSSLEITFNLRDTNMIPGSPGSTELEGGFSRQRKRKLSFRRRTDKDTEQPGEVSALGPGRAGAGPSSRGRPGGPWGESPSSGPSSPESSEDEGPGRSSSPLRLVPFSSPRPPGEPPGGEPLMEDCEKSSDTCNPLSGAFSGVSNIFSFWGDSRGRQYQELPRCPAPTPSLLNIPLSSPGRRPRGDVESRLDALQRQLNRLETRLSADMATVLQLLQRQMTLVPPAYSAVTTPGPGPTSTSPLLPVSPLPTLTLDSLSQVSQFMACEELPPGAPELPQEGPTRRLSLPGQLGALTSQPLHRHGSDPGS
# [5] = molecular target: Indoleamine 2,3-dioxygenase 1 (Homo sapiens) (UniProt P14902); settings: Blood, time 1095.0 min
# Sequence of Indoleamine 2,3-dioxygenase 1 (Homo sapiens) (P14902 whole entry, looked up): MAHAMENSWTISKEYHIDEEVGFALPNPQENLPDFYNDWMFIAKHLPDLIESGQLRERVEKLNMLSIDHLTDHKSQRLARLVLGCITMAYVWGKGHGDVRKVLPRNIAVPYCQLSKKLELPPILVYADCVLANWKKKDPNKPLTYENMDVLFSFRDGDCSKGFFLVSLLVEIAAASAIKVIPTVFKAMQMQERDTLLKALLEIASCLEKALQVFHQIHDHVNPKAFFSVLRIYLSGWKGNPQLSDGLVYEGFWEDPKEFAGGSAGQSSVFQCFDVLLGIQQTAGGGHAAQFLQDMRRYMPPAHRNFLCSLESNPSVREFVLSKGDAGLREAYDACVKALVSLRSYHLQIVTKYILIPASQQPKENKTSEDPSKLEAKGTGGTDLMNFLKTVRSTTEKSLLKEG
# [6] = Protein binding in human plasma assessed as unbound fraction; assay type: ADME, cell-free
# [7] = Inhibition of Ca ion channel (unknown origin); design: species or system Homo sapiens
# [8] = Inhibition of Na ion channel (unknown origin); design: species or system Homo sapiens
# [9] = Apparent permeability of compound; assay type: ADME; settings: not told
# [10] = Protein binding in rat plasma assessed as unbound fraction; assay type: ADME, cell-free
# Cytochrome P450 3A4 = Cytochrome P450 3A4 (Homo sapiens, UniProt P08684); assay: Inhibition of CYP3A4 (unknown origin); assay type: ADME
# Sequence of Cytochrome P450 3A4 (P08684 whole entry): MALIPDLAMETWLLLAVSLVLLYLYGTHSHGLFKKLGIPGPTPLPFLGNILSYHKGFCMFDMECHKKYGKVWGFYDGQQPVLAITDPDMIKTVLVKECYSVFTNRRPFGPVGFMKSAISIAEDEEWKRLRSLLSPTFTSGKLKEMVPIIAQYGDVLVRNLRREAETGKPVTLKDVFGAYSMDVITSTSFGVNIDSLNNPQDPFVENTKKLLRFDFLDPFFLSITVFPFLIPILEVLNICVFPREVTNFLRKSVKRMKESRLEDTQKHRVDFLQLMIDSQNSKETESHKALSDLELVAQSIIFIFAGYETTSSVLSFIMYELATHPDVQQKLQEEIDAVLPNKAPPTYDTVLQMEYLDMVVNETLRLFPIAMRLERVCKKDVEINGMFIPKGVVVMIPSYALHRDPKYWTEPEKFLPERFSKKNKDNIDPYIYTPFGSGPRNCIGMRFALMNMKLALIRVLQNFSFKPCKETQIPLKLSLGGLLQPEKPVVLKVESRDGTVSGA
# Cytochrome P450 2C9 = Cytochrome P450 2C9 (Homo sapiens, UniProt P11712); assay: Inhibition of CYP2C9 (unknown origin); assay type: ADME
# Sequence of Cytochrome P450 2C9 (P11712 whole entry): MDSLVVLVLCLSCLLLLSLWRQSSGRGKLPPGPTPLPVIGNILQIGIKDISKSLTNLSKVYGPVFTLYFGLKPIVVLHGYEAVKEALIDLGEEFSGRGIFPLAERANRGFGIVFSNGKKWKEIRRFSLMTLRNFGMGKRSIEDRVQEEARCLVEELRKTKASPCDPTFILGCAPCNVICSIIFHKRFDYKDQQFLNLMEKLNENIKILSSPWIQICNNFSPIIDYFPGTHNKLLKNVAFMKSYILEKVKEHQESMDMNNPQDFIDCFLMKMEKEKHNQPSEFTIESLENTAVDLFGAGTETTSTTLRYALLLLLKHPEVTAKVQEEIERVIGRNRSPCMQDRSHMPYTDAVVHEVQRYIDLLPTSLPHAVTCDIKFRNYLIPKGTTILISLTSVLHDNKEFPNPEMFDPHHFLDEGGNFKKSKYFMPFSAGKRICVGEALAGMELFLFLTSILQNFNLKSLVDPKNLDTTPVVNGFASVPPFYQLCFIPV
# [11] = Drug metabolism in human hepatocytes assessed as amide hydrolysis metabolite formation at 30 uM measured upto 90 mins by LC-MS analysis; assay type: ADME, cell-based, Hepatocyte
# [12] = Half life in rat at 2 mg/kg, po or 1 mg/kg, iv; assay type: ADME, organism-based; settings: in vivo
# [13] = Unbound clearance in rat at 0.05 mg/kg, iv; assay type: ADME, organism-based; settings: in vivo
# [14] = Clearance in rat at 0.05 mg/kg, iv; assay type: ADME, organism-based; settings: in vivo
# [15] = Drug metabolism in rat hepatocytes assessed as amide hydrolysis metabolite formation at 30 uM measured upto 90 mins by LC-MS analysis; assay type: ADME, cell-based, Hepatocyte
# [16] = Drug metabolism in rat hepatocytes assessed as oxidative metabolite formation at 30 uM measured upto 90 mins by LC-MS analysis; assay type: ADME, cell-based, Hepatocyte
# [17] = Drug metabolism in human hepatocytes assessed as oxidative metabolite formation at 30 uM measured upto 90 mins by LC-MS analysis; assay type: ADME, cell-based, Hepatocyte
# [18] = Metabolic stability in rat hepatocytes at 30 uM measured upto 90 mins by LC-MS analysis; assay type: ADME, cell-based, Hepatocyte
# [19] = Metabolic stability in human hepatocytes at 30 uM measured upto 90 mins by LC-MS analysis; assay type: ADME, cell-based, Hepatocyte
# [20] = molecular target: Tryptophan 2,3-dioxygenase (Homo sapiens) (UniProt P48775); assay: Inhibition of TDO in human SW48 cells assessed as inhibition of N-formylkynurenine production; assay type: cell-based
# Sequence of Tryptophan 2,3-dioxygenase (Homo sapiens) (P48775 whole entry, looked up): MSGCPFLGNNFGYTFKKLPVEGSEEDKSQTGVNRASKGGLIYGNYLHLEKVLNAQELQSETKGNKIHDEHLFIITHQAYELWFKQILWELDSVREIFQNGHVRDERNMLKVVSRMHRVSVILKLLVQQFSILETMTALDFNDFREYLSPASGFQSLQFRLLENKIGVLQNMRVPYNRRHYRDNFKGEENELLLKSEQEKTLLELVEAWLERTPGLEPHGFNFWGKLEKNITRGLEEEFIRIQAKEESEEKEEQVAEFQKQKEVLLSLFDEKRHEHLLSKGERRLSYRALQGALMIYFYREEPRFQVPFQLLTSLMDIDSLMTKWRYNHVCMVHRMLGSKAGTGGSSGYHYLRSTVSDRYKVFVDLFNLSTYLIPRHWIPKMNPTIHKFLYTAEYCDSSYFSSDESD
# [21] = Plasma clearance in rat at 2 mg/kg, po or 1 mg/kg, iv; assay type: ADME, organism-based
# [22] = Oral bioavailability in rat at 2 mg/kg; assay type: ADME, organism-based; settings: in vivo
# [23] = Unbound clearance in rat at 2 mg/kg, po or 1 mg/kg, iv; assay type: ADME, organism-based; settings: in vivo
SMILES,"logD at 24 h, 200 µM [1]","solubility at 24 h, 200 µM [2]","solubility at 24 h, 200 µM [3]",IC50 [4],also measured
C[C@@H](NC(=O)c1ccc(F)cc1)c1ccc2c(n1)CCCN2C(=O)OCC(F)(F)F,3,200 µM,132 µM,,
COCCOC(=O)N1CCCc2nc([C@@H](C)NC(=O)c3ccc(F)cc3)ccc21,2.3,196 µM,165 µM,,
CC(C)CC(=O)N1CCCc2cc(CNC(=O)c3ccc(Cl)cc3)ccc21,3.3,13 µM,13 µM,22 µM,
C[C@@H](NC(=O)c1ccc(F)cc1)c1ccc2c(n1)CCCN2c1ccnc(C(F)(F)F)n1,,183 µM,166 µM,25 µM,fIC50 [5]: 2.1 nM; fraction unbound [6]: 0.05; IC50 [7]: 6 µM; IC50 [8]: 7 µM; Papp [9]: 33 ×10⁻⁶ cm/s; fraction unbound [10]: 0.037; IC50 (Cytochrome P450 3A4): 43 µM; IC50 (Cytochrome P450 2C9): 18 µM
C[C@@H](NC(=O)c1ccc(F)cc1)c1ccc2c(n1)CCCN2C(=O)c1cccc(Cl)c1,3.1,148 µM,82 µM,,Drug metabolism [11]: Metabolite_Detected; half-life [12]: 1.6 h; CL free [13]: 1566 mL/min/kg; fraction unbound [6]: 0.029; IC50 [7]: 20 µM; IC50 [8]: 20 µM; Papp [9]: 32 ×10⁻⁶ cm/s; clearance [14]: 57 mL/min/kg; fraction unbound [10]: 0.037; Drug metabolism [15]: Metabolite_Detected; IC50 (Cytochrome P450 3A4): 20 µM
CCCNC(=O)C1(c2ccc(NC(=O)c3cccc(Cl)c3)cc2)CCC1,3.2,,,,
C[C@@H](NC(=O)c1ccc(Cl)cc1)c1ccc2c(c1)CCCN2C(=O)c1cccc(Cl)c1,3.7,< 1 µM,3 µM,1 µM,Drug metabolism [16]: Metabolite_Detected; Drug metabolism [17]: Metabolite_Detected
Cc1nccc(N2CCCc3nc([C@@H](C)NC(=O)c4ccc(F)cc4)ccc32)n1,,168 µM,166 µM,18 µM,
C[C@H](NC(=O)c1ccc(Cl)cc1)c1ccc2c(c1)CCCN2C(=O)c1cccc(Cl)c1,3.7,< 1 µM,3 µM,1 µM,
Cc1cc(N2CCCc3nc([C@@H](C)NC(=O)c4ccc(F)cc4)ccc32)ccn1,2,177 µM,165 µM,0.73 µM,Stabilty [18]: Stable; Stabilty [19]: Stable
O=C(NCc1ccc2c(c1)CCCN2C(=O)c1cccc(Cl)c1)c1ccc(Cl)cc1,,,,11 µM,
C[C@@H](NC(=O)c1ccc(Cl)cc1)c1ccc2c(c1)OCCN2C(=O)c1cccc(Cl)c1,3.6,1 µM,3 µM,6.9 µM,
C[C@@H](NC(=O)c1ccc(Cl)cc1)c1ccc2c(c1)C(F)(F)CCN2C(=O)c1cccc(Cl)c1,3.9,< 4 µM,< 4 µM,,
C[C@@H](NC(=O)c1ccc(F)cc1)c1ccc2c(n1)CCCN2c1ccccn1,2.7,197 µM,151 µM,,
C[C@@H](NC(=O)c1ccc(F)cc1)c1ccc2c(n1)CCCN2c1ccncn1,1.9,157 µM,164 µM,,
C[C@@H](NC(=O)c1ccc(F)cc1)c1ccc2c(n1)CCCN2c1cccnc1,2.3,177 µM,147 µM,,
C[C@@H](NC(=O)c1ccc(F)cc1)c1ccc2c(n1)CCCN2c1cnccn1,2.1,143 µM,4 µM,,
C[C@@H](NC(=O)c1ccc(F)cc1)c1ccc2c(n1)CCCN2C(=O)OC1CCC1,3.2,184 µM,134 µM,,
CC(C)CC(=O)N1CCCc2cc(CNC(=O)c3ccsc3)ccc21,2.8,140 µM,137 µM,24 µM,half-life [12]: 0.2 h; Stabilty [18]: Unstable; inhibition [20]: inactive; Stabilty [19]: Unstable; clearance [21]: 93 mL/min/kg
C[C@@H](NC(=O)c1ccc(F)cc1)c1ccc2c(n1)CCCN2c1ccnc(C#N)n1,2.7,163 µM,152 µM,,
C[C@@H](NC(=O)c1ccc(Cl)cc1)c1ccc2c(n1)CCCN2C(=O)c1cccc(Cl)c1,3.4,171 µM,11 µM,8.7 µM,
CC(C)CC(=O)N1CCCc2cc(CNC(=O)c3ccc(Cl)cc3)cnc21,3,185 µM,97 µM,,
C[C@@H](NC(=O)c1ccc(Cl)cc1)c1cc2c(cn1)N(C(=O)c1cccc(Cl)c1)CCC2,3.3,152 µM,27 µM,16 µM,
COC(=O)N1CCCc2nc([C@@H](C)NC(=O)c3ccc(F)cc3)ccc21,2.3,167 µM,154 µM,,
C[C@@H](NC(=O)c1ccc(F)cc1)c1ccc2c(n1)CCCN2C(=O)OC1CC1,2.8,181 µM,156 µM,20 µM,half-life [12]: 1.1 h; fraction unbound [6]: 0.094; IC50 [7]: 60 µM; IC50 [8]: 60 µM; Papp [9]: 32 ×10⁻⁶ cm/s; fraction unbound [10]: 0.11; IC50 (Cytochrome P450 3A4): 60 µM; clearance [21]: 14 mL/min/kg; bioavailability [22]: 40%; IC50 (Cytochrome P450 2C9): 6.2 µM; CL free [23]: 221 mL/min/kg
C[C@@H](NC(=O)c1ccc(F)cc1)c1ccc2c(n1)CCCN2C(=O)C1(C(F)(F)F)CC1,2.9,187 µM,162 µM,,Stabilty [18]: Stable; Stabilty [19]: Stable
C[C@@H](NC(=O)c1ccc(F)cc1)c1ccc2c(n1)CCCN2c1ncccn1,2.4,139 µM,5 µM,20 µM,
C[C@@H](NC(=O)c1ccc(F)cc1)c1ccc2c(n1)CCCN2C(=O)OC1COC1,2,176 µM,168 µM,,
CCOC(=O)N1CCCc2nc([C@@H](C)NC(=O)c3ccc(F)cc3)ccc21,2.7,183 µM,168 µM,,

# Reference: ChEMBL document CHEMBL4680374, “Carbamate and N-Pyrimidine Mitigate Amide Hydrolysis: Structure-Based Drug Design of Tetrahydroquinoline IDO1 Inhibitors” (ACS Med Chem Lett, 2021)
